Literature values in patent US7198796B2, “Antifungal parenteral products” (Vicuron Pharmaceuticals Inc., priority 2002, dated 2007).
*1 amine or outer side, *2 acyl side, *3 side chain or, on linkers, in order; H or OH if unused. Where a SMILES comes first, the peptide text is derived from it. Bridges are numbered along the chain shown (N, C = ends). [ ]: non-standard residue; d: D form. The star is where a group is joined. ξ: configuration not given here. pTerphenylCO(4''-OnC5H11) = CCCCCOc1ccc(-c2ccc(-c3ccc(C(=O)*)cc3)cc2)cc1; ξOrn(4R-OH,5R-OH) = O=C(C(C[C@@H](O)[C@@H](O)N[*:3])N[*:1])[*:2]; hTyr(3S-OH,4S-OH) = N[C@H](C(=O)O)[C@H](O)[C@@H](O)c1ccc(O)cc1; Pro(3S-OH,4S-Me) = C[C@H]1CN[C@H](C(=O)O)[C@H]1O; Hyp = O=C(O)[C@@H]1C[C@@H](O)CN1

For `CCCCCOc1ccc(-c2ccc(-c3ccc(C(=O)NC4C[C@@H](O)[C@@H](O)NC(=O)[C@@H]5[C@@H](O)[C@@H](C)CN5C(=O)[C@H]([C@@H](C)O)NC(=O)[C@H]([C@H](O)[C@@H](O)c5ccc(O)cc5)NC(=O)[C@@H]5C[C@@H](O)CN5C(=O)[C@H]([C@@H](C)O)NC4=O)cc3)cc2)cc1` (stereo partly drawn) [anidulafungin, 1-[(4R,5R)-4,5-Dihydroxy-N(2)-[[4″-(pentyloxy)[1,1′:4′,1″-terphenyl]-4-yl]carbonyl]-L-ornithine]echinocandin B] ({pTerphenylCO(4''-OnC5H11)}-[ξOrn(4R-OH,5R-OH)]T[Hyp][hTyr(3S-OH,4S-OH)]T[Pro(3S-OH,4S-Me)]; lactam 1-C), the water solubility is listed as “less than 0.1 mg/ml”.
